# Test results: EP4759814A1, “TRICYCLIC COMPOUND AND USE THEREOF AS MAT2A INHIBITOR” (SK Biopharmaceuticals Co., Ltd., priority 2023, dated 2025)
# Molecular target: T1, MAT2A (Homo sapiens, UniProt P31153)
# T1 construct: purchased BPS Bioscience (USA) 71401
# Assay: MAT2A inhibitory activity, colorimetric phosphate detection (PiColorLock) enzyme assay
# Assay type: biochemical
# Settings: Test Condition 1 or 2 (not stated which per compound); absorbance at 630 nm
# Experimental: In vitro assay: Methionine and adenosine triphosphate (ATP) are converted into S-adenosylmethionine (SAM) and inorganic phosphate (pi) via the catalytic action of methionine adenosyltransferase 2A (MAT2A). The produced pi is detected by the PiColorLock™ Phosphate Detection Reagent, which is a colorimetric assay, and the activity of MAT2A can be evaluated according to the amount of pi generated during the enzyme reaction. Each compound was evaluated under Test Condition 1 or 2 as described below.
# • Concentration of MAT2A inhibitor: maximum concentration of 50 µM, 5-fold dilution (7 groups in total) • MAT2A concentration: 12 ng/µL • ATP and Met concentration: 100 µM, 80 µM
# • Concentration of MAT2A inhibitor: maximum concentration of 1 µM, 3-fold dilution (7 groups in total) • MAT2A concentration: 4 ng/µL • ATP and Met concentration: 300 µM, 150 µM • Reagents: Methionine (catalog number M5308) and ATP (catalog number A2383) were purchased from Sigma-Aldrich (USA). MAT2A (catalog number 71401) was purchased from BPS Bioscience (USA), and PiColorLock™ Phosphate Detection Reagent (catalog number 303-0030) was purchased from Novus (USA).
# Assay buffer composition: 50 mM Tris-HCl pH 8.0, 50 mM KCI, 15 mM MgCl2, 0.3 mM EDTA, 0.005 % (w/v) BSA
# Experimental procedure: Each compound was diluted 5-fold or 3-fold based on the maximum concentration (5 mM or 1 mM or 0.1 mM) using DMSO. The diluted compounds were diluted 20-fold using assay buffer, and then mixed at a volume ratio of 1:2 with MAT2A (30 ng/µL or 10 ng/µL) diluted with assay buffer and treated for 30 minutes at room temperature. The negative control group is a group untreated with both the MAT2A enzyme and the compound according to an embodiment of the present application, and the positive control group is a group treated only with the MAT2A enzyme and untreated with the compound according to an embodiment of the present application.
# In each well of a 384-well plate, 30 µL of the mixed solution and 20 µL of a 1:1 mixed solution of ATP (0.5 mM or 1.5 mM) and Met (0.4 mM or 0.75 mM) were mixed and then treated for 1 hour at room temperature. After the enzyme reaction, 13 µL of a 100:1 mixed solution of PiColorLockTM and Accelerator was treated in each well and reacted for 5 minutes at room temperature. After treating 5 µL of Stabilizer in each well and reacting for 25 minutes at room temperature, the absorbance at 630 nm was measured using SpectraMax M4 (Molecular Devices, USA) to calculate the IC50 value of the compound.
# Analysis method: The enzyme activity (%) of each experimental group was calculated as {(average O.D. of compound-treated group - average O.D. of negative control group)/(average O.D. of positive control group - average O.D. of negative control group)} * 100. After preparing a dose-response curve (4-parameter) using the enzyme activity according to the treatment concentration of each compound in GraphPad Prism 9, the 50 % of enzyme inhibitory activity value (IC50) was calculated through non-linear regression analysis. The IC50 results measured for the MAT2A activity inhibitory ability of the compounds according to an embodiment of the present application are shown in Table 2 (+++: more than 1 to 100 nM, ++: more than 100 to 1,000 nM, +: more than 1,000 to 10,000 nM, -: more than 10,000 nM).
# T1 sequence (P31153 whole entry): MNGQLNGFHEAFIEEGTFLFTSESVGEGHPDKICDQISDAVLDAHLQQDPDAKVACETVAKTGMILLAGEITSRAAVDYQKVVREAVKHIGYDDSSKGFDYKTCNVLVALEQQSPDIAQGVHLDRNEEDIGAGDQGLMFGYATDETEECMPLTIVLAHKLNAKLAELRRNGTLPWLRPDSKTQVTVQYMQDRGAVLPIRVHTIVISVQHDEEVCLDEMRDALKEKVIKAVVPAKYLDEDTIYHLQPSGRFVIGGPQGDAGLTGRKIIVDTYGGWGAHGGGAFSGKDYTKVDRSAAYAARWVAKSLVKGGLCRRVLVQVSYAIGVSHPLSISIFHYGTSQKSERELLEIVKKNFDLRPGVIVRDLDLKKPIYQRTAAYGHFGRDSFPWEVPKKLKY
row,IC50 [µM],SMILES
1,> 10,"O=c1c2nccn2c2ccc(Cl)cc2n1-c1ccccc1F [Example 12, 7-chloro-5-(2-fluorophenyl)imidazo[1,2-a]quinoxalin-4(5H)-one]"
2,> 10,"Cc1c(F)cccc1-n1c(=O)c2nccn2c2ccc(OCC(F)(F)F)cc21 [Example 29, 5-(3-fluoro-2-methylphenyl)-7-(2,2,2-trifluoroethoxy)imidazo[1,2-a]quinoxalin-4(5H)-one]"
3,> 10,"CCOc1ccc2c(c1)n(-c1cccc(F)c1C)c(=O)c1nccn12 [Example 31, 7-ethoxy-5-(3-fluoro-2-methylphenyl)imidazo[1,2-a]quinoxalin-4(5H)-one]"
4,1 to 10,"Cc1ccccc1-n1c(=O)c2nccn2c2ccc(F)cc21 [Example 41, 7-fluoro-5-(o-tolyl)imidazo[1,2-a]quinoxalin-4(5H)-one]"
5,> 10,"Cc1ccccc1-n1c(=O)c2nccn2c2cnc(Cl)cc21 [Example 42, 3-chloro-5-(o-tolyl)imidazo[1,2-a]pyrido[4,3-e]pyrazin-6(5H)-one]"
6,> 10,"N#Cc1ccccc1-n1c(=O)c2nccn2c2ccc(Cl)cc21 [Example 43, 2-(7-chloro-4-oxoimidazo[1,2-a]quinoxalin-5(4H)-yl)benzonitrile]"
7,0.001 to 0.1,"CS(=O)(=O)Nc1cccc(-n2c(=O)c3nccn3c3ccc(Cl)cc32)c1 [Example 44, N-(3-(7-chloro-4-oxoimidazo[1,2-a]quinoxalin-5(4H)-yl)phenyl)methanesulfonamide]"
8,> 10,"Cc1ccccc1-n1c(=O)c2nccn2c2ccc(C(C)C)nc21 [Example 47, 7-isopropyl-5-(o-tolyl)imidazo[1,2-a]pyrido[2,3-e]pyrazin-4(5H)-one]"
9,0.1 to 1,"Cc1nccnc1-n1c(=O)c2nccn2c2ccc(Cl)cc21 [Example 48, 7-chloro-5-(3-methylpyrazin-2-yl)imidazo[1,2-a]quinoxalin-4(5H)-one]"
10,1 to 10,"O=c1c2nccn2c2ccc(Cl)cc2n1-c1ccccc1OC(F)(F)F [Example 50, 7-chloro-5-(2-(trifluoromethoxy)phenyl)imidazo[1,2-a]quinoxalin-4(5H)-one]"
11,> 10,"Cc1cccc(C)c1-n1c(=O)c2nccn2c2ccc(Cl)cc21 [Example 51, 7-chloro-5-(2,6-dimethylphenyl)imidazo[1,2-a]quinoxalin-4(5H)-one]"
12,> 10,"Cc1cccnc1-n1c(=O)c2nccn2c2ccc(Cl)cc21 [Example 53, 7-chloro-5-(3-methylpyridin-2-yl)imidazo[1,2-a]quinoxalin-4(5H)-one]"
13,1 to 10,"CC(=O)c1cnc2c(=O)n(-c3cccnc3C)c3cc(C(F)(F)F)ccc3n12 [Example 59, 1-acetyl-5-(2-methylpyridin-3-yl)-7-(trifluoromethyl)imidazo[1,2-a]quinoxalin-4(5H)-one]"
14,> 10,"Cc1ncccc1-n1c(=O)c2nc(CN3CCN(C)CC3)cn2c2ccc(Cl)cc21 [Example 61, 7-chloro-2-((4-methylpiperazin-1-yl)methyl)-5-(2-methylpyridin-3-yl)imidazo[1,2-a]quinoxalin-4(5H)-one]"
15,0.1 to 1,"Cc1ncccc1-n1c(=O)c2nc(CN3CCOCC3)cn2c2ccc(Cl)cc21 [Example 62, 7-chloro-5-(2-methylpyridin-3-yl)-2-(morpholinomethyl)imidazo[1,2-a]quinoxalin-4(5H)-one]"
16,> 10,"Cc1ncccc1-n1c(=O)c2nc(CN3CCC4(CC3)COC4)cn2c2ccc(Cl)cc21 [Example 63, 2-((2-oxa-7-azaspiro[3.5]nonane-7-yl)methyl)-7-chloro-5-(2-methylpyridin-3-yl)imidazo[1,2-a]quinoxalin-4(5H)-one]"
17,0.1 to 1,"COCCNCc1cn2c(n1)c(=O)n(-c1cccnc1C)c1cc(Cl)ccc12 [Example 64, 7-chloro-2-(((2-methoxyethyl)amino)methyl)-5-(2-methylpyridin-3-yl)imidazo[1,2-a]quinoxalin-4(5H)-one]"
18,1 to 10,"Cc1ccccc1-n1c(=O)c2nccn2c2cc(Br)c(Cl)cc21 [Example 72, 8-bromo-7-chloro-5-(o-tolyl)imidazo[1,2-a]quinoxalin-4(5H)-one]"
19,> 10,"Cc1ncccc1-n1c(=O)c2nccn2c2cc(C(F)(F)F)c(Br)cc21 [Example 76, 7-bromo-5-(2-methylpyridin-3-yl)-8-(trifluoromethyl)imidazo[1,2-a]quinoxalin-4(5H)-one]"
20,> 10,"Cc1ncccc1-n1c(=O)c2nccn2c2cc(C(F)F)c(Br)cc21 [Example 82, 7-bromo-8-(difluoromethyl)-5-(2-methylpyridin-3-yl)imidazo[1,2-a]quinoxalin-4(5H)-one]"
21,1 to 10,"Cn1nccc1-n1c(=O)c2nccn2c2cc(Cl)c(Br)cc21 [Example 83, 7-bromo-8-chloro-5-(1-methyl-1H-pyrazol-5-yl)imidazo[1,2-a]quinoxalin-4(5H)-one]"
22,> 10,"Cc1cc2c(cc1Br)n(-c1cccnc1O)c(=O)c1nccn12 [Example 90, 7-bromo-5-(2-hydroxypyridin-3-yl)-8-methylimidazo[1,2-a]quinoxalin-4(5H)-one]"
23,> 10,"Cc1ncccc1-n1c(=O)c2nccn2c2c(N3CCCC3)cc(Cl)cc21 [Example 104, 7-chloro-5-(2-methylpyridin-3-yl)-9-(pyrrolidine-1-yl)imidazo[1,2-a]quinoxalin-4(5H)-one]"
24,> 10,"Cc1ncccc1-n1c(=O)c2nccn2c2c(N(C)C)cc(Cl)cc21 [Example 106, 7-chloro-9-(dimethylamino)-5-(2-methylpyridin-3-yl)imidazo[1,2-a]quinoxalin-4(5H)-one]"
25,0.1 to 1,"Cc1ncccc1-n1c(=O)c2nccn2c2c(OC(F)F)cc(C(F)(F)F)cc21 [Example 115, 9-(difluoromethoxy)-5-(2-methylpyridin-3-yl)-7-(trifluoromethyl)imidazo[1,2-a]quinoxalin-4(5H)-one]"
26,0.001 to 0.1,"Cc1ncccc1-n1c(=O)c2nccn2c2c(OCC(F)(F)F)cc(C(F)(F)F)cc21 [Example 117, 5-(2-methylpyridin-3-yl)-9-(2,2,2-trifluoroethoxy)-7-(trifluoromethyl)imidazo[1,2-a]quinoxalin-4(5H)-one]"
27,0.001 to 0.1,"CCOc1cc(C(F)(F)F)cc2c1n1ccnc1c(=O)n2-c1cccnc1C [Example 118, 9-ethoxy-5-(2-methylpyridin-3-yl)-7-(trifluoromethyl)imidazo[1,2-a]quinoxalin-4(5H)-one]"

row,SMILES,IC50 [µM]
1,"Cc1ncccc1-n1c(=O)c2nccn2c2cc(Cl)c(Br)cc21 (atropisomer, axis not shown; (Ra)) [Example 80, (Ra)-7-bromo-8-chloro-5-(2-methylpyridin-3-yl)imidazo[1,2-a]quinoxalin-4(5H)-one]",> 10
2,"Cc1cc2c(cc1C(F)(F)F)n(-c1cccnc1C)c(=O)c1nccn12 (atropisomer, axis not shown; (Ra)) [Example 94, (Ra)-8-methyl-5-(2-methylpyridin-3-yl)-7-(trifluoromethyl)imidazo[1,2-a]quinoxalin4(5H)-one]",> 10
3,"Cc1ncccc1-n1c(=O)c2nccn2c2cc(Cl)c(C(F)(F)F)cc21 (atropisomer, axis not shown; (Ra)) [Example 97, (Ra)-8-chloro-5-(2-methylpyridin-3-yl)-7-(trifluoromethyl)imidazo[1,2-a]quinoxalin-4(5H)-one]",> 10
4,"CCc1ncccc1-n1c(=O)c2nccn2c2cc(Cl)c(C(F)(F)F)cc21 (atropisomer, axis not shown; (Ra)) [Example 111, (Ra)-8-chloro-5-(2-ethylpyridin-3-yl)-7-(trifluoromethyl)imidazo[1,2-a]quinoxalin-4(5H)-one]",> 10
